Test results: patent US20110020786A1, “PEPTIDE DENDRIMERS: AFFINITY REAGENTS FOR BINDING NOROVIRUSES” (BAYLOR COLLEGE OF MEDICINE, priority 2007, published 2011)
Ends that are not written are not given here.

Columns and labels:
immobilized NoVLPs = experiment: Surface plasmon resonance, dendrimer binding to immobilized NoVLPs (KD determination); design: species or system Norovirus; settings: steady-state model fit of equilibrium average response, 8-240 μM dendrimer, HBS-P, 10 μL/min
Experimental: FIGS. 4A-4B are charts illustrating the concentration dependence of RHFQTHTVPLSL8 (the octovalent dendrimer of SEQ ID NO: 1) binding to immobilized NoVLPs. 1-8 μM; 2-32 μM; 3-64 μM; 4-96 μM; 5-160 μM; 6-240 μM; (FIG. 4A). Samples were prepared in the running buffer (HBS-P) and injected at a flowrate of 10 μL/min. The arrow indicates the end of the injection of the dendrimer (binding phase) which is followed by washing with running buffer (dissociation phase).
Peptide binding to VLPs was detected using a BIAcore 3000 instrument. VLPs were immobilized to a CM5 sensor chip using amine coupling at 5 μL/min in HBS buffer (10 mM HEPES containing 0.15 M NaCl and 0.005% surfactant P20, pH 7.4): the sensor chip surface was activated by a 10 min injection of a solution of 0.05 M NHS (N-hydroxysuccinimide) and 0.2 M EDC (N-ethyl-N′-dimethylaminopropylcarbodiimide) followed by a 5 min injection of VLPs (100 μg/mL) in 10 mM sodium acetate pH 4 and blocking of unreacted activated groups with a 7 min injection of ethanolamine. Final surface densities were typically around 9000 RU.

[1] = system: native genogroup II Norovirus from clinical samples; experiment: Native NoV capture and detection in clinical samples by ELISA; assay type: binding; settings: dendrimer as capture reagent, stool samples GII #1-3, bound virus detected with NS14
Experimental: The capture reagent was RHFQTHTVPLSL8 (the octovalent dendrimer of SEQ ID NO: 1) (middle bars), or AHFQTHTVPLSL8 (the octovalent dendrimer of SEQ ID NO: 2) (right bars) and bound virus was detected with a MAb3912 (GI) or NS14 (GII). […] For comparison, detection of Norovirus from genogroup I samples (GI#1-3) was evaluated using a genogroup I specific antibody as the capture reagent (left bars). The potential of false positive signals was evaluated using clinical samples negative for Norovirus (negative #1-3) with anti-genogroup I antibody, RHFQTHTVPLSL8 (the octovalent dendrimer of SEQ ID NO: 1) and AHFQTHTVPLSL8 (the octovalent dendrimer of SEQ ID NO: 2) as capture reagents.
Capture and detection of native NoV from clinical samples was performed by ELISA. […] Captured NoV was detected with an anti-Norwalk virus antibody from rabbit (for genogroup I Norwalk detection) or NS14 (for genogroup II NoV detection) as the primary antibody followed by goat anti-rabbit-HRP or goat anti-mouse-HRP as the secondary antibody with detection at 405 nm using the HRP substrate ABTS.

“RHFQTHTVPLSL8 (also: octovalent dendrimer of the peptide)” was tested, and the Kd (immobilized NoVLPs) was 117 µM and the “capture of native genogroup II Norovirus from clinical samples” value [1] was “No genogroup II virus could be detected”.
